# From patent US11844846B2, “Styrylbenzothiazole derivatives and uses in imaging methods” (Emory University, priority 2018, dated 2023)
# pKd: −log10 of the molar value. Where “and” joins values, the source holds several entries; their conditions need not be identical. Equal values may be shown once. Entries after “also recorded” stand apart in the source; their conditions may differ. Read-outs that look alike come from different tables or passages of the source.
# Experiments:
# Tau PFFs [1] = molecular target: T1, Tau PFFs (Homo sapiens, UniProt P10636); test: counter-screening with Tau PFFs; type: binding; settings: result in words
# T1 sequence (P10636 whole entry): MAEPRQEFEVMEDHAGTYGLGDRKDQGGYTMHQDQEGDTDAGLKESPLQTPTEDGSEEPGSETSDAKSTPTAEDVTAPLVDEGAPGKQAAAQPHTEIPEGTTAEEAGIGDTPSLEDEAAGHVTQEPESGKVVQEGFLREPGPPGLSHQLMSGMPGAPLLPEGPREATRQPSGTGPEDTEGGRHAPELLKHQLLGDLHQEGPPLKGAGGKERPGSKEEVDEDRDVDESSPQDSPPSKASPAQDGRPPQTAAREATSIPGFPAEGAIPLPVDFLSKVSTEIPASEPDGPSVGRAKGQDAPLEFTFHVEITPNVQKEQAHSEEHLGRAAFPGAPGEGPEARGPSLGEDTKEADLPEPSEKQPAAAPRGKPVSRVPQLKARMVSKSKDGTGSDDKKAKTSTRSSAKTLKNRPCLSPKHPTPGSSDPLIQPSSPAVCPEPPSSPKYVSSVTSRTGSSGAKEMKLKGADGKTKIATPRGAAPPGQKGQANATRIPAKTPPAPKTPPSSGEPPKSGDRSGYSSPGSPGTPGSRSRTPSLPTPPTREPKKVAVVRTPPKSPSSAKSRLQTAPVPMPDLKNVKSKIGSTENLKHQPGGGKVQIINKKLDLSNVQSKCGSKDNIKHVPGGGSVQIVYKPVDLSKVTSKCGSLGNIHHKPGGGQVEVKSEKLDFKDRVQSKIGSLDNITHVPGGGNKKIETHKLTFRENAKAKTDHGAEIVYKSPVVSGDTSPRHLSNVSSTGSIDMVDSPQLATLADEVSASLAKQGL
# Excerpt: (§1) The general strategy that was employed to screen the candidate Lewy body PET agents is summarized as follows: (a) To perform in vitro binding assay with Pre-formed fibrils (PFFs) of α-Syn and counter-screening with Tau and Aβ PFFs; (b) To test the positive compounds in the neuronal models with aggregated α-Syn, Tau or […]; (c) To screen with the brain slides from α-Syn mutant A53T virus injected WT mice, and counter-screen with aged 3×Tg (containing both senile plaques and NFT), and aged Tau P301S (NFT) brain sections; (d) to screen the patient brain sections from DLB and MSA against AD; (e) To determine the binding kinetics between α-Syn PFFs and positive hits; (f) To determine the candidates in vivo brain/plasma (B/P) ratios and the brain permeability; (g) To determine the in vivo PET images in α-Syn A53T with candidates and compare its images in 5XFAD and Tau P301S mice.
# (§2) To perform in vitro binding assay, commercial compounds were screened (See FIG. 7B).
# (§3) A series of derivatives were synthesized by including an amino group and a methyl group on benzothiazole to increase the brain permeability and fluorescent signals. The derivatives were subsequently subjected to α-Syn PFFs binding assay and counter-screening with Tau and Aβ PFFs. […] In a few days, the positive compounds were added in the primary neurons with indicated aggregates and analyzed under fluorescent microscopy. […]
# Aβ PFFs [2] = molecular target: T2, Aβ PFFs (Homo sapiens, UniProt P05067); test: counter-screening with Aβ PFFs; type: binding; settings: result in words
# T2 construct: counter-screening with Tau and Aβ PFFs
# T2 sequence (P05067 672-713 limits assumed): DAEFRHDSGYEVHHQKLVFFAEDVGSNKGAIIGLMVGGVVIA
# Excerpt: as §1, §2, §3
# [3] = in vivo PK study of compound 13 decaying into F0502B; settings: after injection of compound 13, 15 min to 90 min
# [4] = molecular target: pre-formed fibrils (PFFs) of α-Synuclein (Homo sapiens, UniProt P37840); test: in vitro binding assay with α-Syn PFFs; settings: fibrils binding assay, result in words
# Excerpt: as §1, §2
# (§4) A series of derivatives were synthesized by including an amino group and a methyl group on benzothiazole to increase the brain permeability and fluorescent signals. The derivatives were subsequently subjected to α-Syn PFFs binding assay and counter-screening with Tau and Aβ PFFs. […] These compounds were screened on the neuronal α-Syn, Tau and Aβ aggregation model for the binding selectivity. Primary cultured neurons were infected with AAV-α-Syn, AAV-Tau FL for 7 days, then treated with α-Syn, Tau or Aβ PFFs. In a few days, the positive compounds were added in the primary neurons with indicated aggregates and analyzed under fluorescent microscopy.
# To perform in vitro binding assay, compounds were screened. […] An amino group and a methyl group in the benzothazole were added to increase its brain permeability and fluorescent signals. […] The synthesized derivatives were subsequently subjected to the α-Syn PFFs binding and counter-screen of Tau and Aβ PFFs as described above.
# [5] = molecular target: T3, senile plaques in 5×FAD and 3×Tg mice brain sections (Homo sapiens, UniProt P05067); test: staining of mouse brain sections with senile plaques; type: binding
# T3 construct: Aβ-enriched senile plaques; from tissue; host or cells: brain sections of 5×FAD and 3×Tg mice
# T3 sequence (P05067 672-713 limits assumed): as above
# [6] = tested on: senile plaques or NFT in AD; test: ex vivo screening on AD patient brain sections; type: binding, human
# Excerpt: (§5) Ex vivo screening was extended into human DLB, MSA and AD patient samples. […] Since there are detectable α-Syn aggregates in AD patient brains, these compounds colocalized with p-S129 positive α-Syn inclusions.
# (§6) The ex vivo screening was extended into human DLB, MSA and AD patient samples. Neurodegenerative disease of DLB (dementia with Lewy Bodies) and MSA belongs to synucleinopathies with well-defined Lewy bodies.
# [7] = molecular target: T4, Lewy bodies in α-Syn A53T virus injected WT mice brain slices (Homo sapiens, UniProt P37840, A53T); test: staining of mouse brain slices with Lewy bodies; type: binding
# T4 construct: from tissue; host or cells: brain (substantia nigra) of wild-type mice injected with α-Syn A53T virus
# Procedure: (§7) To further explore whether the positive compounds selectively bind to the Lewy bodies, α-Syn A53T patient-derived mutant virus injected WT mice brain slices were employed. These mice display extensive Lewy bodies in the SN.
# (§8) To further explore whether the positive compounds selectively bind to the Lewy bodies, a α-Syn A53T patient-derived mutant virus was injected into WT mice brain slices. These mice display extensive Lewy bodies in the Substantial nigra (SN). Moreover, P301S mice expressed neurofibrillary tangles (NFT). The Lewy bodies were labeled with p-α-Syn S129 antibody and the positive aggregates were also labeled with the fluorescent signals from the small molecules. […] However, it was worth noting that almost none of the tested compounds were reactive with NFT.
# α-Syn aggregated neurons = test: neuronal α-Syn aggregation model, fluorescent microscopy; type: cell-based; settings: primary cultured neurons, AAV-α-Syn plus α-Syn PFFs
# Excerpt: as §4
# (§9) Primary cultured neurons were infected with AAV-α-Syn, AAV-Tau FL or AAV-APP fragment virus for 7 days, and then treated with α-Syn, Tau or Aβ PFFs by following the described protocols (Volpicelli-Daley et al., 2014). In a few days, the positive compounds were added in the primary neurons with indicated aggregation.
# α-Syn PFFs = α-Syn PFFs (Homo sapiens, UniProt P37840); test: fluorescence spectroscopy titration with α-Syn PFFs; type: binding; settings: for binding to α-Syn PFFs by fluorescent emission intensity: 0.08 μM fibrils, 5 μM small molecule, result in words
# Procedure: (§10) A fluorescent titration assay was conducted. The fluorescent emission intensities were determined with 0.08 μM of various fibrils in the presence of 5 μM of the small molecules.
# (§11) To further investigate the selected compounds binding activities with α-Syn PFFs, fluorescence spectroscopy titrations were conducted to quantitatively measure compounds emission intensity when interacting with different concentrations of α-Syn PFFs. The UV spectrum of each compound was determined and selected for the optimal wavelength to conduct the fluorescence spectroscopic studies.
# Tau PFFs [8] = molecular target: T1, Tau PFFs; test: fluorescence spectroscopy titration with Tau PFFs; type: binding; settings: fluorescence spectroscopy titration; read-out: binding constant Kd for Tau PFFs
# Procedure: as §10, §11
# [9] = molecular target: T5, LBs and LNs in DLB and MSA patient brains (Homo sapiens, UniProt P37840); test: ex vivo screening on DLB and MSA patient brain sections; type: binding
# T5 construct: from tissue; host or cells: brain sections of DLB and MSA patients
# Excerpt: as §5, §6
# Aβ PFFs [10] = molecular target: T2, Aβ PFFs; test: fluorescence spectroscopy titration with Aβ PFFs; type: binding; settings: fluorescence spectroscopy titration; read-out: binding constant Kd for Aβ PFFs
# Procedure: as §10, §11
# [11] = tested on: neurons with Aβ or Tau aggregates; test: neuronal Aβ and Tau aggregation models, fluorescent microscopy; type: cell-based; settings: primary cultured neurons
# Excerpt: as §4, §9
# [12] = plasma-brain ratio study / in vivo PK of EU compounds; parameters: species or system mouse; settings: for B/P: single animals; for brain permeability: i.v.
# Procedure: To address whether the selected compounds penetrate the brain, a plasma-brain ratio study was performed with EU04-03A, EU05-02A and EU05-02B.
# To test whether these compounds are brain permeable in vivo, in vivo PK profiling was conducted to determine brain exposure.
# [13] = tested on: NFT in Tau P301S and 3×Tg mice brain sections; test: staining of mouse brain sections with NFT; type: binding
# Procedure: as §7, §8
smiles,measurement,setting,value
"Cc1cc2nc(/C=C/c3ccc(OC(=O)N(C)C)c(Br)c3)sc2cc1N(C)CCOCCF [compound 13, (E)-2-bromo-4-(2-(6-((2-(2-fluoroethoxy)ethyl)(methyl)amino)-5-methylbenzo[d]thiazol-2-yl)vinyl)phenyl dimethylcarbamate]",binding toward Tau PFFs,Tau PFFs [1],"did not specifically interact with α-Syn, Aβ or Tau aggregates"
same,binding toward Aβ PFFs,Aβ PFFs [2],"did not specifically interact with α-Syn, Aβ or Tau aggregates"
same,plasma concentration course,[3],decreased in the plasma
same,binding activity toward α-Syn PFFs,[4],"did not specifically interact with α-Syn, Aβ or Tau aggregates"
"COc1ccc(/C=C/c2nc3cc(C)c(N(C)CCOCCF)cc3s2)cc1Br [compound 8, (E)-2-(3-bromo-4-methoxystyryl)-N-(2-(2-fluoroethoxy)ethyl)-N,5-dimethylbenzo[d]thiazol-6-amine]",binding toward Tau PFFs,Tau PFFs [1],not Tau fibrils
same,binding toward Aβ PFFs,Aβ PFFs [2],somehow interacted with both α-Syn and Aβ
same,binding activity toward α-Syn PFFs,[4],somehow interacted with both α-Syn and Aβ
"Cc1cc2nc(/C=C/c3ccc(O)c(Br)c3)sc2cc1N(C)C [EU-005-02B, (E)-2-bromo-4-(2-(6-(dimethylamino)-5-methylbenzo[d]thiazol-2-yl)vinyl)phenol]",staining of senile plaques,[5],barely recognized senile plaques or NFT
same,"staining of senile plaques or NFT (Aβ, AT8 positive aggregates)",[6],barely co-stained with anti-AD or AT8 positive aggregate signals
same,"staining of senile plaques or NFT (Aβ, AT8 positive aggregates)",[6]; listed as EU05-02B,did not stain senile plaques or NFT in AD
same,staining of Lewy bodies (p-α-Syn S129 positive),[7],concrete aggregates were also stained with the fluorescent signals from EU05-02B
same,fluorescent signal in α-Syn aggregated neurons,α-Syn aggregated neurons,positive for selective binding
same,fluorescent signal in α-Syn aggregated neurons,α-Syn aggregated neurons; listed as EU05-02B,positive signals in α-Syn aggregated neurons
same,binding to α-Syn PFFs by fluorescent emission intensity,α-Syn PFFs,stronger binding affinity toward α-Syn PFFs versus Tau and Aβ PFFs; also recorded: dose-dependent escalation of the emission intensities
same,binding to α-Syn PFFs by fluorescent emission intensity,α-Syn PFFs; listed as EU05-02B,partial binding selectivity toward α-Syn PFFs versus Aβ and Tau fibrils
same,binding to α-Syn PFFs by fluorescent emission intensity,α-Syn PFFs; listed as EU-05-02B,showed specific association with the PFFs
same,pKd,"α-Syn PFFs; fluorescence spectroscopy titration, read-out: binding constant Kd for α-Syn PFFs",6.77
same,pKd,Tau PFFs [8],5.43
same,staining of LBs and LNs,[9],robust signals with LBs and LNs
same,staining of LBs and LNs,[9]; listed as EU05-02B,robust signals with LBs and LNs in DLB and MSA patient brains
same,pKd,Aβ PFFs [10],6.07
same,fluorescent signal in neurons with Aβ or Tau aggregates,[11],negligible effects in neurons with Aβ or Tau aggregates
same,B/P,"[12]; Male ICH Mouse, 5 mg/kg IV, 0.50 h, 5 mg/kg",2.00 and 2.47 and 1.16
same,B/P,"[12]; Male ICH Mouse, 5 mg/kg IV, 1.00 h, 5 mg/kg",2.72 and 6.12 and 4.48
same,B/P,"[12]; Male ICH Mouse, 5 mg/kg IV, 2.00 h, 5 mg/kg",5.13 and 13.88 and 25.06
same,B/P,"[12]; Male ICH Mouse, 5 mg/kg IV, 4.00 h, 5 mg/kg",29.74 and 5.63 and 21.06
same,B/P,"[12]; Male ICH Mouse, 5 mg/kg IV, 8.00 h, 5 mg/kg",57.33 and 78.00 and 36.00
same,Kp at 0.5 h,"[12]; male, ICH, mouse, brain, iv, 5 mg/kg, Male ICH Mouse, 5 mg/kg IV, 0.50 h, read-out: B/P Mean",1.88
same,Kp at 1 h,"[12]; male, ICH, mouse, brain, iv, 5 mg/kg, Male ICH Mouse, 5 mg/kg IV, 1.00 h, read-out: B/P Mean",4.44
same,Kp at 2 h,"[12]; male, ICH, mouse, brain, iv, 5 mg/kg, Male ICH Mouse, 5 mg/kg IV, 2.00 h, read-out: B/P Mean",14.7
same,Kp at 4 h,"[12]; male, ICH, mouse, brain, iv, 5 mg/kg, Male ICH Mouse, 5 mg/kg IV, 4.00 h, read-out: B/P Mean",18.8
same,Kp at 8 h,"[12]; male, ICH, mouse, brain, iv, 5 mg/kg, Male ICH Mouse, 5 mg/kg IV, 8.00 h, read-out: B/P Mean",57.1
same,in vivo half-life / decay,"[12]; mice, i.v. 5 mg/kg, result in words",long in vivo half-life
same,brain permeability,"[12]; mice, result in words",time-dependent escalation of B/P ratios; also recorded: brain permeability is much higher as compared to EU-005-02A
same,brain permeability,"[12]; mice, result in words, listed as EU05-02B",swiftly penetrated the brain and exhibited much higher brain permeability compared to EU05-02A
same,staining of NFT,[13],barely recognized senile plaques or NFT
